Like-named read-outs stand apart in the source and are kept apart here.
Legend:
Candida albicans [1] = test: Activity of compounds (I) against vaginal candidosis in rats; format: in vivo, Female Wistar rats; settings: 336 h, oral once a day for two days from day of infection, active at the 14th day after infection
Description: Experiment A: Activity of compounds (I) against vaginal candidosis in rats Female Wistar rats of ± 100 g body weight were used. They were ovariectomized and hysterectomized and after three weeks of recovery, 100 μg of oestradiol undecylate in sesame oil was given subcutaneously once a week for 3 consecutive weeks. The thus induced pseudooestrus was controlled by microscopic examination of vaginal smears. Food and water were left available ad libitum. The rats were infected intravaginally with 8.10^5 cells of Candida albicans, grown on Sabouraud broth for 48 hours at 37° C. and diluted with saline. The date of infection varied from day +25 to day +32 after surgical intervention, depending on the appearance of signs of induced pseudo-oestrus. The drugs under investigation were administered orally once a day for two days starting from the day of infection. For each experiment there were placebo treated controls. The results were assessed by taking vaginal smears with sterile swabs on several days after the infection. The swabs were put into Sabouraud broth in petri-dishes and incubated for 48 hours at 37° C. If no growth of Candida albicans occured, i.e., when the animals were negative at the end of the experiment, this was due to drug administration because it never happened in placebo treated controls. The tables I and II below give the lowest oral dose of the drug under investigation which was found active at the 14th day after infection.

Candida albicans [2] = test: Activity of compounds (I) against crop candidosis in turkeys; format: in vivo; settings: medicated feed for 13 consecutive days from day of infection, crops of 50% of animals completely negative for Candida albicans; for Crop candidosis in Turkeys: ED50 in mg/kg of feed.: Table I
Description: Experiment B: Activity of compounds (I) against crop candidosis in turkeys Turkeys of 14 days old were infected in the crop with 4·10^6 Candida albicans cells, grown on Sabouraud broth for 48 hours at 37° C. and diluted with saline. The volume of the inoculum was 1 ml. The drug under investigation were premixed in 500 mg of lacton and thereafter admixed in 1000 g of meal without any additives. The concentration of the drug under investigation in the meal was expressed in mg/kg. The animals were given the medicated feed for 13 consecutive days starting on the day of infection. At the end of the experiment all animals were sacrificed. At autopsy the crops were removed, emptied and grinded in an ultra-turrax mixer in 15 ml of sterile saline. Colony counting was done on Sabouraud agar and the results given in Tables I and Ii represent the ED50, i.e., the dose of the drug whereby the crops of 50% of the animals were completely negative for Candida albicans.

[3] = Table I, read-out: Vaginal candidosis in rats: lowest effective dose
[4] = Table II, read-out: Vagingal candidosis in rats: lowest effective dose

Compound	minimal effective dose (Candida albicans [1]; [3]) [mg/kg]	Crop candidosis in Turkeys: ED50 in mg/kg of feed. (Candida albicans [2])	minimal effective dose (Candida albicans [1]; [4]) [mg/kg]	Crop candidosis in Turkeys: ED50 in mg/kg in feed (Candida albicans [2]; Table II) [mg/kg in feed]
CCSc1nccn1-c1ccc(OC[C@H]2CO[C@](Cn3ccnc3)(c3ccc(Cl)cc3Cl)O2)cc1 (relative stereo)	5			
Clc1ccc([C@@]2(Cn3ccnc3)OC[C@H](COc3ccc(-n4ccnc4-c4ccccc4)cc3)O2)c(Cl)c1 (relative stereo)	5	125 mg/kg of feed		
CSc1ncn(-c2ccc(OC[C@H]3CO[C@](Cn4ccnc4)(c4ccc(Cl)cc4Cl)O3)cc2)n1 (relative stereo)	1.25	16 mg/kg of feed		
CCCSc1nccn1-c1ccc(OC[C@H]2CO[C@](Cn3ccnc3)(c3ccc(Cl)cc3Cl)O2)cc1 (relative stereo)	5	31 mg/kg of feed		
Clc1ccc([C@@]2(Cn3ccnc3)OC[C@H](COc3ccc(-n4ccnc4)cc3)O2)c(Cl)c1 (relative stereo)	1.25	8 mg/kg of feed		
Cc1nn(C)c(=O)n1-c1ccc(OC[C@H]2CO[C@](Cn3ccnc3)(c3ccc(Cl)cc3Cl)O2)cc1 (relative stereo)	1.25			
Clc1ccc([C@@]2(Cn3ccnc3)OC[C@H](COc3ccc(-n4cccn4)cc3)O2)c(Cl)c1 (relative stereo)	2.5	16 mg/kg of feed		
Clc1ccc([C@@]2(Cn3ccnc3)OC[C@H](COc3ccc(-n4cnnn4)cc3)O2)c(Cl)c1 (relative stereo)		31 mg/kg of feed		
CCCn1ncn(-c2ccc(OC[C@H]3CO[C@](Cn4ccnc4)(c4ccc(Cl)cc4Cl)O3)cc2)c1=O (relative stereo)	< 10			
Cc1nnc([S+](C)[O-])n1-c1ccc(OC[C@H]2CO[C@](Cn3ccnc3)(c3ccc(Cl)cc3Cl)O2)cc1 (relative stereo)	10	16 mg/kg of feed		
Clc1ccc([C@@]2(Cn3ccnc3)OC[C@H](COc3ccc(-n4cccc4)cc3)O2)c(Cl)c1 (relative stereo)	2.5	125 mg/kg of feed		
Cc1ncnn1-c1ccc(OC[C@H]2CO[C@](Cn3ccnc3)(c3ccc(Cl)cc3Cl)O2)cc1 (relative stereo)	1.25	8 mg/kg of feed		
CCn1nc(C)n(-c2ccc(OC[C@H]3CO[C@](Cn4ccnc4)(c4ccc(Cl)cc4Cl)O3)cc2)c1=O (relative stereo)	2.5			
CCn1ncn(-c2ccc(OC[C@H]3CO[C@](Cn4ccnc4)(c4ccc(Cl)cc4Cl)O3)cc2)c1=O (relative stereo)	5	31 mg/kg of feed		
Cc1ccn(-c2ccc(OC[C@H]3CO[C@](Cn4ccnc4)(c4ccc(Cl)cc4Cl)O3)cc2)n1 (relative stereo)	2.5			
Clc1ccc([C@@]2(Cn3ccnc3)OC[C@H](COc3ccc(-n4cncn4)cc3)O2)c(Cl)c1 (relative stereo)	1.25	16 mg/kg of feed		
Sc1nnnn1-c1ccc(OC[C@H]2CO[C@](Cn3ccnc3)(c3ccc(Cl)cc3Cl)O2)cc1 (relative stereo)	2.5			
CS(=O)(=O)c1nccn1-c1ccc(OC[C@H]2CO[C@](Cn3ccnc3)(c3ccc(Cl)cc3Cl)O2)cc1 (relative stereo)	5			

Compound	minimal effective dose (Candida albicans [1]; [3]) [mg/kg]	Crop candidosis in Turkeys: ED50 in mg/kg of feed. (Candida albicans [2])	minimal effective dose (Candida albicans [1]; [4]) [mg/kg]	Crop candidosis in Turkeys: ED50 in mg/kg in feed (Candida albicans [2]; Table II) [mg/kg in feed]
CSc1nc(C)n(-c2ccc(OC[C@H]3CO[C@](Cn4ccnc4)(c4ccc(Cl)cc4Cl)O3)cc2)n1 (relative stereo)	2.5			
CCOc1nncn1-c1ccc(OC[C@H]2CO[C@](Cn3ccnc3)(c3ccc(Cl)cc3Cl)O2)cc1 (relative stereo)	2.5	31 mg/kg of feed		
CSc1nccn1-c1ccc(OC[C@H]2CO[C@](Cn3ccnc3)(c3ccc(Cl)cc3Cl)O2)cc1 (relative stereo)	5	31 mg/kg of feed		
CC(C)n1ncn(-c2ccc(OC[C@H]3CO[C@](Cn4ccnc4)(c4ccc(Cl)cc4Cl)O3)cc2)c1=O (relative stereo)	< 10			
COc1ccc([C@@]2(Cn3ccnc3)OC[C@H](COc3ccc(-n4ccnc4)cc3)O2)cc1 (relative stereo)			5	
Cc1n[nH]c(=O)n1-c1ccc(OC[C@H]2CO[C@](Cn3ccnc3)(c3ccc(Cl)cc3Cl)O2)cc1 (relative stereo)	< 10			
Clc1ccc(C2(Cn3ccnc3)OCC(COc3cccc(-n4ccnc4)c3)O2)c(Cl)c1 (stereo not drawn)			2.5	
Cc1nn(C(C)C)c(=O)n1-c1ccc(OC[C@H]2CO[C@](Cn3ccnc3)(c3ccc(Cl)cc3Cl)O2)cc1 (relative stereo)	5			
Clc1ccc(C2(Cn3cncn3)OCC(COc3ccc(-n4ccnc4)cc3)O2)c(Cl)c1 (stereo not drawn)			1.25	8
C[S+]([O-])c1nncn1-c1ccc(OC[C@H]2CO[C@](Cn3ccnc3)(c3ccc(Cl)cc3Cl)O2)cc1 (relative stereo)	2.5			
CCc1ncnn1-c1ccc(OC[C@H]2CO[C@](Cn3ccnc3)(c3ccc(Cl)cc3Cl)O2)cc1 (relative stereo)	5	8 mg/kg of feed		
CSc1nncn1-c1ccc(OC[C@H]2CO[C@](Cn3ccnc3)(c3ccc(Cl)cc3Cl)O2)cc1 (relative stereo)	10	8 mg/kg of feed		
CSc1nnc(C)n1-c1ccc(OC[C@H]2CO[C@](Cn3ccnc3)(c3ccc(Cl)cc3Cl)O2)cc1 (relative stereo)	2.5			
CSc1ncc(C)n1-c1ccc(OC[C@H]2CO[C@](Cn3ccnc3)(c3ccc(Cl)cc3Cl)O2)cc1 (relative stereo)		31 mg/kg of feed		
Clc1ccc([C@@]2(Cn3ccnc3)OC[C@H](COc3ccc(-n4ncnc4-c4ccccc4)cc3)O2)c(Cl)c1 (relative stereo)	10			
Cc1nccn1-c1ccc(OC[C@H]2CO[C@](Cn3ccnc3)(c3ccc(Cl)cc3Cl)O2)cc1 (relative stereo)	10	125 mg/kg of feed		
CC(C)Sc1nccn1-c1ccc(OC[C@H]2CO[C@](Cn3ccnc3)(c3ccc(Cl)cc3Cl)O2)cc1 (relative stereo)		31 mg/kg of feed		

From US4160841A, “Heterocyclic derivatives of 1-(1,3-dioxolan-2-ylmethyl)-1H-imidazoles” (Janssen Pharmaceutica, N.V., priority 1977, dated 1979)
